Data: patent US9969724B2, “Factor IXa inhibitors” (Merck Sharp & Dohme Corp., priority 2014, dated 2018)
pIC50: −log10 of the molar value.

biological target: human factor IXa (Homo sapiens (Human), UniProt P00740); assay: Determination of Inhibitory Activity Against Factor IXa; assay type: biochemical; conditions: Factor IXa enzyme assay human; read-out: FIXa IC50
Procedure: Inhibitory activity against factor IXa was tested using the substrate SPECTROFLUOR FIXa (american diagnostica inc.; 500 West Avenue, Stamford, Conn. 06902 USA; Pr. No. 299F) and human factor IXa (american diagnostica inc.; Pr. No. 449b). Test substances were dissolved in buffer A (50 mM α,α,α-tris(hydroxymethyl) methylamine (Tris), 100 mM NaCl, 5 mM CaCl2, 15% (v/v) ethylene glycol, pH 8.0) were mixed with factor IXa (0.1 μg/ml final concentration). The enzyme reaction was started by addition of SPECTROFLUOR FIXa (100 μM final concentration). After incubation for 60 minutes at room temperature, the reaction was stopped by the addition of 20% (v/v) acetic acid solution, and then the fluorescence value was measured (Excitation Wavelength: 355 nm, Emission Wavelength; 460 nm) in a microtiter plate reader (ARVO 1420 Multilabel Counter; PerkinElmer).
The IC50 was calculated from a dilution series of the test substance with the aid of the software, Symyx Assay Explorer (Symyx Technologies, Inc.).

Sequence of human factor IXa (P00740 227-461): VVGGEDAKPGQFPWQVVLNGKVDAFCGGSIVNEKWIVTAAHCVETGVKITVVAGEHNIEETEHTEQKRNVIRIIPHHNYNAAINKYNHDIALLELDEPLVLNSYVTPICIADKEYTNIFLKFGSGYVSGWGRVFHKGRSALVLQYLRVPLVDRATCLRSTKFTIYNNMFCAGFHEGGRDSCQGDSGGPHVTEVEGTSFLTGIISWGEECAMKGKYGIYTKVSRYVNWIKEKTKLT
Sequence of human factor IXa (P00740 47-191 partner): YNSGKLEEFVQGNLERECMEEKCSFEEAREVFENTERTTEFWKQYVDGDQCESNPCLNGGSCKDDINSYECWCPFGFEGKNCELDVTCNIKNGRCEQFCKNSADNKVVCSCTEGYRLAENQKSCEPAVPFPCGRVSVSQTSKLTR

Nc1noc2c(N3CC[C@@H](NC(=O)c4ccc(-n5cn[nH]c5=O)cc4Cl)C3)ncc(Cl)c12 [Example 46, (R)—N-(1-(3-Amino-4-chloroisoxazolo[5,4-c]pyridin-7-yl)pyrrolidin-3-yl)-2-chloro-4-(5-oxo-1,5-dihydro-4H-1,2,4-triazol-4-yl)benzamide] and Nc1noc2c(N3CC[C@@H](NC(=O)c4ccc(-n5cnn(CCO)c5=O)cc4Cl)C3)ncc(Cl)c12 [Example 47, (R)—N-(1-(3-Amino-4-chloroisoxazolo[5,4-c]pyridin-7-yl)pyrrolidin-3-yl)-2-chloro-4-(1-(2-hydroxyethyl)-5-oxo-1,5-dihydro-4H-1,2,4-triazol-4-yl)benzamide] cannot be ordered by pIC50: no less than 7.00 for the first, no less than 7.00 for the second.

Nc1noc2c(N3CC[C@@H](NC(=O)c4ccc(-c5ccc(=O)n(C(F)F)c5)cc4Cl)C3)ncc(Cl)c12 [Example 37, (R)—N-(1-(3-Amino-4-chloroisoxazolo[5,4-c]pyridin-7-yl)pyrrolidin-3-yl)-2-chloro-4-(1-(difluoromethyl)-6-oxo-1,6-dihydropyridin-3-yl)benzamide] and Nc1noc2c(N3CC[C@@H](NC(=O)c4ccc(-c5ccc(=O)n(CC(F)(F)F)c5)cc4Cl)C3)ncc(Cl)c12 [Example 35, (R)—N-(1-(3-Amino-4-chloroisoxazolo[5,4-c]pyridin-7-yl)pyrrolidin-3-yl)-2-chloro-4-(6-oxo-1-(2,2,2-trifluoroethyl)-1,6-dihydropyridin-3-yl)benzamide] cannot be ordered by pIC50: no less than 7.00 for the first, no less than 7.00 for the second.

Cc1ncn(-c2ccc(C(=O)N[C@@H]3CCN(c4nc(C#N)cc5c(N)noc45)C3)c(Cl)c2)n1 [Example 41, (R)—N-(1-(3-Amino-5-cyanoisoxazolo[5,4-c]pyridin-7-yl)pyrrolidin-3-yl)-2-chloro-4-(3-methyl-1H-1,2,4-triazol-1-yl)benzamide] and Cc1ncn(-c2ccc(C(=O)N[C@@H]3CCN(c4nc(C(F)F)cc5c(N)noc45)C3)c(Cl)c2)n1 [Example 39, (R)—N-(1-(3-Amino-5-(difluoromethyl)isoxazolo[5,4-c]pyridin-7-yl)pyrrolidin-3-yl)-2-chloro-4-(3-methyl-1H-1,2,4-triazol-1-yl)benzamide] cannot be ordered by pIC50: no less than 7.00 for the first, 6.00 to 7.00 for the second.

Nc1noc2c(N3CC[C@@H](NC(=O)c4ccc(-c5ccnc(CO)c5)cc4Cl)C3)ccc(Cl)c12 [Example 53, (R)—N-(1-(3-Amino-4-chlorobenzo[d]isoxazol-7-yl)pyrrolidin-3-yl)-2-chloro-4-(2-(hydroxymethyl)pyridin-4-yl)benzamide] and Nc1noc2c(N3CC[C@@H](NC(=O)c4ccc(-n5cnnc5)cc4Cl)C3)ccc(Cl)c12 [Example 9, (R)—N-(1-(3-Amino-4-chlorobenzo[d]isoxazol-7-yl)pyrrolidin-3-yl)-2-chloro-4-(4H-1,2,4-triazol-4-yl)benzamide] cannot be ordered by pIC50: no less than 7.00 for the first, no less than 7.00 for the second.

Cc1ncn(-c2ccc(C(=O)N[C@@H]3CCN(c4ncc(Cl)c5c(N)noc45)C3)c(Cl)c2)n1 [Example 11, (R)—N-(1-(3-Amino-4-chloroisoxazolo[5,4-c]pyridin-7-yl)pyrrolidin-3-yl)-2-chloro-4-(3-methyl-1H-1,2,4-triazol-1-yl)benzamide] and Cc1ncn(-c2cnc(C(=O)N[C@@H]3CCN(c4ncc(Cl)c5c(N)noc45)C3)c(Cl)c2)n1 [Example 52, (R)—N-(1-(3-Amino-4-chloroisoxazolo[5,4-c]pyridin-7-yl)pyrrolidin-3-yl)-3-chloro-5-(3-methyl-1H-1,2,4-triazol-1-yl)picolinamide] cannot be ordered by pIC50: no less than 7.00 for the first, 6.00 to 7.00 for the second.

Nc1noc2c(N3CC[C@@H](NC(=O)c4ccc(-n5cnc(C6CC6)n5)cc4Cl)C3)cc(Cl)cc12 [Example 17, (R)—N-(1-(3-Amino-5-chlorobenzo[d]isoxazol-7-yl)pyrrolidin-3-yl)-2-chloro-4-(3-cyclopropyl-1H-1,2,4-triazol-1-yl)benzamide] and Cc1ncn(-c2ccc(C(=O)N[C@@H]3CCN(c4cc(C#N)cc5c(N)noc45)C3)c(Cl)c2)n1 [Example 34, (R)—N-(1-(3-Amino-5-cyanobenzo[d]isoxazol-7-yl)pyrrolidin-3-yl)-2-chloro-4-(3-methyl-1H-1,2,4-triazol-1-yl)benzamide] cannot be ordered by pIC50: no less than 7.00 for the first, no less than 7.00 for the second.

Nc1noc2c(N3CC[C@@H](NC(=O)c4ccc(-c5cnccn5)cc4Cl)C3)ncc(Cl)c12 [Example 33, (R)—N-(1-(3-Amino-4-chloroisoxazolo[5,4-c]pyridin-7-yl)pyrrolidin-3-yl)-2-chloro-4-(pyrazin-2-yl)benzamide] and Nc1noc2c(N3CC[C@@H](NC(=O)c4ccc(-c5ccnnc5)cc4Cl)C3)ncc(Cl)c12 [Example 30, (R)—N-(1-(3-Amino-4-chloroisoxazolo[5,4-c]pyridin-7-yl)pyrrolidin-3-yl)-2-chloro-4-(pyridazin-4-yl)benzamide] cannot be ordered by pIC50: no less than 7.00 for the first, no less than 7.00 for the second.

Cn1nc(-c2ccc(C(=O)N[C@@H]3CCN(c4ncc(Cl)c5c(N)noc45)C3)c(Cl)c2)ccc1=O [Example 40, (R)—N-(1-(3-Amino-4-chloroisoxazolo[5,4-c]pyridin-7-yl)pyrrolidin-3-yl)-2-chloro-4-(1-methyl-6-oxo-1,6-dihydropyridazin-3-yl)benzamide] and Nc1noc2c(N3CC[C@@H](NC(=O)c4ccc(-c5ccc6nncn6c5)cc4Cl)C3)ncc(Cl)c12 [Example 38, (R)-4-([1,2,4]Triazolo[4,3-a]pyridin-6-yl)-N-(1-(3-amino-4-chloroisoxazolo[5,4-c]pyridin-7-yl)pyrrolidin-3-yl)-2-chlorobenzamide] cannot be ordered by pIC50: no less than 7.00 for the first, no less than 7.00 for the second.

Cc1cc(N2CCC(NC(=O)c3c(Cl)cc(-n4cnc(C)n4)cc3Cl)C2)c2onc(N)c2c1 (stereo not shown) [Example 6, N-(1-(3-Amino-5-methylbenzo[d]isoxazol-7-yl)pyrrolidin-3-yl)-2,6-dichloro-4-(3-methyl-1H-1,2,4-triazol-1-yl)benzamide] and Cc1cc2c(N)noc2c(N2CC[C@@H](NC(=O)c3c(Cl)cc(-n4cnn(C)c4=O)cc3Cl)C2)n1 [Example 49, (R)—N-(1-(3-Amino-5-methylisoxazolo[5,4-c]pyridin-7-yl)pyrrolidin-3-yl)-2,6-dichloro-4-(1-methyl-5-oxo-1,5-dihydro-4H-1,2,4-triazol-4-yl)benzamide] cannot be ordered by pIC50: no less than 7.00 for the first, no less than 7.00 for the second.

Nc1noc2c(N3CC[C@@H](NC(=O)c4ccc(-n5cncn5)cc4F)C3)ccc(Cl)c12 [Example 18, (R)—N-(1-(3-Amino-4-chlorobenzo[d]isoxazol-7-yl)pyrrolidin-3-yl)-2-fluoro-4-(1H-1,2,4-triazol-1-yl)benzamide] and Nc1noc2c(N3CC[C@@H](NC(=O)c4ccc(-n5cnnc5)cc4Cl)C3)ccc(F)c12 [Example 13, (R)—N-(1-(3-Amino-4-fluorobenzo[d]isoxazol-7-yl)pyrrolidin-3-yl)-2-chloro-4-(4H-1,2,4-triazol-4-yl)benzamide] fall in the same range of pIC50: 6.00 to 7.00 for the first, 6.00 to 7.00 for the second.

Nc1noc2c(N3CC[C@@H](NC(=O)c4ccc(-n5cnnc5)cc4)C3)ncc(Cl)c12 [Example 36, (R)—N-(1-(3-Amino-4-chloroisoxazolo[5,4-c]pyridin-7-yl)pyrrolidin-3-yl)-4-(4H-1,2,4-triazol-4-yl)benzamide] and Nc1noc2c(N3CC[C@@H](NC(=O)c4ccc(-n5cnc6ncccc65)cc4Cl)C3)ncc(Cl)c12 [Example 32, (R)—N-(1-(3-Amino-4-chloroisoxazolo[5,4-c]pyridin-7-yl)pyrrolidin-3-yl)-2-chloro-4-(1H-imidazo[4,5-b]pyridin-1-yl)benzamide] cannot be ordered by pIC50: no less than 7.00 for the first, no less than 7.00 for the second.

Nc1noc2c(N3CC[C@@H](NC(=O)c4ccc(-n5cnc6cncnc65)cc4Cl)C3)ncc(Cl)c12 [Example 48, (R)—N-(1-(3-Amino-4-chloroisoxazolo[5,4-c]pyridin-7-yl)pyrrolidin-3-yl)-2-chloro-4-(9H-purin-9-yl)benzamide] and Nc1noc2c(N3CC[C@@H](NC(=O)c4ccc(-n5cnnc5C(F)F)cc4Cl)C3)ncc(Cl)c12 [Example 28, (R)—N-(1-(3-Amino-4-chloroisoxazolo[5,4-c]pyridin-7-yl)pyrrolidin-3-yl)-2-chloro-4-(3-(difluoromethyl)-4H-1,2,4-triazol-4-yl)benzamide] cannot be ordered by pIC50: no less than 7.00 for the first, no less than 7.00 for the second.

Nc1noc2c(N3CC[C@@H](NC(=O)c4ccc(-c5cncc(CCO)c5)cc4Cl)C3)ncc(Cl)c12 [Example 31, (R)—N-(1-(3-Amino-4-chloroisoxazolo[5,4-c]pyridin-7-yl)pyrrolidin-3-yl)-2-chloro-4-(5-(2-hydroxyethyl)pyridin-3-yl)benzamide] and Nc1noc2c(N3CC[C@@H](NC(=O)c4ccc(-n5cnnc5)cc4Cl)C3)cc(Cl)c(Cl)c12 [Example 14, (R)—N-(1-(3-Amino-4,5-dichlorobenzo[d]isoxazol-7-yl)pyrrolidin-3-yl)-2-chloro-4-(4H-1,2,4-triazol-4-yl)benzamide] cannot be ordered by pIC50: no less than 7.00 for the first, no less than 7.00 for the second.

Cc1ncn(-c2ccc(C(=O)NC3(C)CCN(c4cc(Cl)cc5c(N)noc45)C3)c(Cl)c2)n1 (stereo not shown) [Example 15, N-(1-(3-Amino-5-chlorobenzo[d]isoxazol-7-yl)-3-methylpyrrolidin-3-yl)-2-chloro-4-(3-methyl-1H-1,2,4-triazol-1-yl)benzamide] and Nc1noc2c(N3C[C@H](NC(=O)c4c(Cl)cc(-n5cnnc5)cc4Cl)[C@@H](O)C3)cccc12 (relative stereo) [Example 8, N-((3S*,4S*)-1-(3-Aminobenzo[d]isoxazol-7-yl)-4-hydroxypyrrolidin-3-yl)-2,6-dichloro-4-(4H-1,2,4-triazol-4-yl)benzamide] cannot be ordered by pIC50: no less than 7.00 for the first, no less than 7.00 for the second.
